Structures can show the parent of a compound that is named as a salt.
Assays:
dissolution rate = format: physicochemical; conditions: compared to the free form
[1] = tested on: human airway epithelial cells; conditions: human airway epithelial cells in vitro; cited from earlier work
β2-adrenoceptor = β2-adrenoceptor (Homo sapiens, UniProt P07550); conditions: cited from earlier work
rats = conditions: cited from earlier work
solubility = format: physicochemical; conditions: free form, in water
[2] = stability (physical stability, stability under light); format: physicochemical; conditions: for stability: free form, under light
[3] = pH of a 1% solution/suspension in water; format: physicochemical; conditions: 10 mg salt in 1 mL water, ultrasound about 5 min, stirred one hour at RT, batch B, 24.3-25.2° C.
Protocol: A mixture of 10 mg salt and 1 mL water was treated about 5 min with ultrasound. Afterwards, the mixture was stirred for one hour at RT followed by pH measurement.

former smokers = conditions: oral; cited from earlier work
[4] = listed as free form of 7-(2,3-di-p-tolyl-7,8-dihydropyrido[2,3-b]pyrazin-5(6H)-yl)heptanoi

Sequence of β2-adrenoceptor (P07550 whole entry, species assumed): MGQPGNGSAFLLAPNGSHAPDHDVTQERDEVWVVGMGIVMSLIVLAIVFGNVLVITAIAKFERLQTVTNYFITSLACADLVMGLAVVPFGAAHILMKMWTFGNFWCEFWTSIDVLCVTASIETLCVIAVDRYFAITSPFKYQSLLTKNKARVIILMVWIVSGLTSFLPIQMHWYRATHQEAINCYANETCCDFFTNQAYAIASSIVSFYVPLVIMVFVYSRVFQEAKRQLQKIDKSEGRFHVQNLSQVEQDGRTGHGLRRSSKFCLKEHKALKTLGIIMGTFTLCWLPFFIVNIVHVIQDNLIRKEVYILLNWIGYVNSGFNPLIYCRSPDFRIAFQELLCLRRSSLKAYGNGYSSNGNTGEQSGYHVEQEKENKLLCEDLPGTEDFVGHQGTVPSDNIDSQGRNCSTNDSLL

**Q.** Which dissolution rate (dissolution rate) does the source give for CS(=O)(=O)O.Cc1ccc(-c2nc3c(nc2-c2ccc(C)cc2)N(CCCCCCC(=O)O)CCC3)cc1 [mesylate salt of 7-(2,3-di-p-tolyl-7,8-dihydropyrido[2,3-b]pyrazin-5(6H)-yl)heptanoic acid] here?
**A.** significantly higher dissolution rate compared to the free form

**Q.** With O=C(O)c1cccc(/C=C2/C[C@@H]3[C@@H](/C=C/[C@@H](O)C4CCCCC4)[C@H](O)C[C@@H]3O2)c1 [Taprostene] as the compound, how does the “generation of the CD8+ T cell chemoattractants CXCL9 and CXCL10” value [1] read?
**A.** suppressed

**Q.** With CCc1cc2c(cc1CC)CC(NC[C@H](O)c1ccc(O)c3[nH]c(=O)ccc13)C2 [indacaterol, (R)-5-[2-(5,6-diethyl-indan-2-ylamino)-1-hydroxyethyl]-8-hydroxy-1H-quinolin-2-one] as the compound, how does the duration of action (β2-adrenoceptor) read?
**A.** over 24 hours

**Q.** What about the onset of action (β2-adrenoceptor) of the same compound?
**A.** about 10 minutes

**Q.** Which “development of experimental cigarette smoke-induced emphysema” value (rats) does the source give for CC#CCC(C)[C@H](O)/C=C/[C@@H]1[C@H]2c3cccc(CCCC(=O)O)c3O[C@H]2C[C@H]1O (mixture of isomers) [Beraprost] here?
**A.** protected

**Q.** With Cc1ccc(-c2nc3c(nc2-c2ccc(C)cc2)N(CCCCCCC(=O)O)CCC3)cc1 [7-(2,3-di-p-tolyl-7,8-dihydropyrido[2,3-b]pyrazin-5(6H)-yl)heptanoic acid] as the compound, how does the solubility (solubility) read?
**A.** poorly soluble in water

**Q.** What about the solubility (solubility; [4]) of the same compound?
**A.** poor solubility

**Q.** And the stability [2]?
**A.** low stability under light

**Q.** And the stability [2, 4]?
**A.** poor solubility and stability

**Q.** Which results are given for Cc1ccc(-c2nc3c(nc2-c2ccc(C)cc2)N(CCCCCCC(=O)O)CCC3)cc1 [Example 2, 7-(2,3-di-p-tolyl-7,8-dihydropyrido[2,3-b]pyrazin-5(6H)-yl)heptanoate xinafoate]?
**A.** photostability [2]: good; pH of a 1% solution/suspension in water [3]: 6.46

**Q.** For Cc1ccc(-c2nc3c(nc2-c2ccc(C)cc2)N(CCCCCCC(=O)[O-])CCC3)cc1.[Na+] [Example 3, 7-(2,3-di-p-tolyl-7,8-dihydropyrido[2,3-b]pyrazin-5(6H)-yl)heptanoate sodium], which physical stability [2] is on record?
**A.** good

**Q.** Which “pH of a 1% solution/suspension in water” value ([3]; hydrochloride) does the source give for Cc1ccc(-c2nc3c(nc2-c2ccc(C)cc2)N(CCCCCCC(=O)O)CCC3)cc1 [Example 4, 7-(2,3-di-p-tolyl-7,8-dihydropyrido[2,3-b]pyrazin-5(6H)-yl)heptanoate hydrochloride] here?
**A.** 2.3

**Q.** Which endobronchial dysplasia (former smokers) does the source give for CC#CCC(C)[C@H](O)/C=C/[C@@H]1[C@H]2C/C(=C/CCCC(=O)O)C[C@H]2C[C@H]1O (stereo partly shown) [iloprost] here?
**A.** significantly improved

**Q.** For Cc1ccc(-c2nc3c(nc2-c2ccc(C)cc2)N(CCCCCCC(=O)O)CCC3)cc1 [Example 1, 7-(2,3-di-p-tolyl-7,8-dihydropyrido[2,3-b]pyrazin-5(6H)-yl)heptanoate sulfate], which physical stability [2] is on record?
**A.** good

**Q.** What about the “pH of a 1% solution/suspension in water” value ([3]; sulfate) of the same compound?
**A.** 1.78
